Patent US20250145585A1, “HETEROCYCLIC INHIBITORS OF IGF-1R FOR TREATMENT OF DISEASE” (HORIZON THERAPEUTICS IRELAND DAC, priority 2023, published 2025)
pIC50: −log10 of the molar value.

Legend:
IGF-1R [1] = molecular target: T1, IGF-1R (Homo sapiens, UniProt P08069); test: Example B-1: IGF-1R Assay (PC3 cells stimulated with IGF1, AlphaLISA on cell lysates); format: cell-based; details: compound two hours, IGF1 200 ng/mL for 30 min, read-out: IC50, Biological Activity against IGF-1R (Table B1)
T1 construct: expressed in transfected cells
Summary of the method: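 IC50 from AlphaLISA read-out of lysed PC3 cells, percent inhibition normalized between vehicle and EC80 controls. Before lysis, cells had 2 h serum-free starvation, 2 h exposure to compound in 3× dilution series, and 30 min IGF1 stimulation at final 200 ng/mL.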

IGF-1R [2] = molecular target: T1, IGF-1R; test: Example B-2: IGF-1R Assay (PathHunter cell lines, EC80 agonist challenge, chemiluminescent detection); format: cell-based; details: PathHunter cells, compound 60 minutes at 37° C., EC80 agonist 3 hours; read-out: IC50, Biological Activity against IGF-1R (Table B2)
Summary of the method: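 Read-out is PathHunter chemiluminescence, developed for 1 h at room temperature after a 3 h room-temperature EC80 agonist challenge that followed 60 min compound pre-treatment at 37° C (1% vehicle). IC50 comes from % inhibition normalized to EC80 and vehicle controls.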

T1 sequence (P08069 31-1367): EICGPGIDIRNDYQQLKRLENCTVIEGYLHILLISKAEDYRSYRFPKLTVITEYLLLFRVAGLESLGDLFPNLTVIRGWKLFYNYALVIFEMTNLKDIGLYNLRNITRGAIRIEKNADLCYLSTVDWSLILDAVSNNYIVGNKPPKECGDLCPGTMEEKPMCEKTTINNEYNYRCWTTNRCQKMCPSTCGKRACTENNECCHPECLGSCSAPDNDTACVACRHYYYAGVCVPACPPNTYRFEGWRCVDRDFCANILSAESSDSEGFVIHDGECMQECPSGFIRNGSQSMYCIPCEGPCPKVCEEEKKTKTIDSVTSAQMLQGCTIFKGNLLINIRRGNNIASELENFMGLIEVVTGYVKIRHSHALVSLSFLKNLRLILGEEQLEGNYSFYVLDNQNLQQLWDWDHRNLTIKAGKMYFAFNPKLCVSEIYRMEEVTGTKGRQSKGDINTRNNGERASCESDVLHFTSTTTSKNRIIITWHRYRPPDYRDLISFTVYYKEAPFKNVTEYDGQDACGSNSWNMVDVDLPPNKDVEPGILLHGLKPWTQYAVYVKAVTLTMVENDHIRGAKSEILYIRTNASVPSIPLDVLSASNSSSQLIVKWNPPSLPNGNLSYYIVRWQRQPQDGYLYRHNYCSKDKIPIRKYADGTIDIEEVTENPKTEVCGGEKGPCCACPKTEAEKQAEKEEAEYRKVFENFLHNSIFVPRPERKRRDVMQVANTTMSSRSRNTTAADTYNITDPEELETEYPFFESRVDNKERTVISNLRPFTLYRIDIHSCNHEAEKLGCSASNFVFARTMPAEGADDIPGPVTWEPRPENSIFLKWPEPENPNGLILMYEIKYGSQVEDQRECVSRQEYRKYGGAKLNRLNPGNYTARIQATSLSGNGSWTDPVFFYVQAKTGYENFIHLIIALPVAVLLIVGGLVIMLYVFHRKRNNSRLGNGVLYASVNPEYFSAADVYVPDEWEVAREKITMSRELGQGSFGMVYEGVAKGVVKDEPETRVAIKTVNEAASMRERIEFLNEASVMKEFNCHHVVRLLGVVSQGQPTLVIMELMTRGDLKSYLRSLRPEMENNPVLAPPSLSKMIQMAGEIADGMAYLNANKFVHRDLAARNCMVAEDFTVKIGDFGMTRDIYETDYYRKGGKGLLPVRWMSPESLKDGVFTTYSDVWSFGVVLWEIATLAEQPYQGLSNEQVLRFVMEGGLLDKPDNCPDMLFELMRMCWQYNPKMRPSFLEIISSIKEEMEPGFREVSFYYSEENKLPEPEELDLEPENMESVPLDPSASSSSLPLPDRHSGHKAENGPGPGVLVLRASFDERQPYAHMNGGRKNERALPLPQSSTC

| SMILES | pIC50 (IGF-1R [1]) | pIC50 (IGF-1R [2]) |
| --- | --- | --- |
| C[C@@H](CC#N)Nc1cc(CN2C(=O)N(c3ccc(C4(C(F)(F)F)CC4)cc3)C(=O)C2(C)C)ccn1 [Compound 139, (S)-3-((4-((5,5-dimethyl-2,4-dioxo-3-(4-(1-(trifluoromethyl)cyclopropyl)phenyl)imidazolidin-1-yl)methyl)pyridin-2-yl)amino)butanenitrile] | ≥ 6.30 | ≥ 6.30 |
| CC(C)Nc1cc(CN2C(=O)N(c3ccc4c(c3)C(=O)N(C)C4(C)C)C(=O)C2(C)C)ccn1 [Compound 186, 1-((2-(isopropylamino)pyridin-4-yl)methyl)-5,5-dimethyl-3-(1,1,2-trimethyl-3-oxoisoindolin-5-yl)imidazolidine-2,4-dione] | 5.00 to 5.70 | 5.00 to 5.70 |
| CC(C)(O)c1ccc(N2C(=O)N(Cc3ccnc(N)c3)C(C)(C)C2=O)cc1 [Compound 88, 1-((2-aminopyridin-4-yl)methyl)-3-(4-(2-hydroxypropan-2-yl)phenyl)-5,5-dimethylimidazolidine-2,4-dione] | 5.70 to 6.30 | 5.00 to 5.70 |
| CC1(C)C(=O)N(c2ccc(S(=O)(=O)C(F)(F)F)cc2)C(=O)N1Cc1ccnc2[nH]ccc12 [Compound 22, 1-((1H-pyrrolo[2,3-b]pyridin-4-yl)methyl)-5,5-dimethyl-3-(4-((trifluoromethyl)sulfonyl)phenyl) imidazolidine-2,4-dione] | ≥ 6.30 | ≥ 6.30 |
| CC(C)Nc1cc(CN2C(=O)N(c3ccc(C4(C)CC4(F)F)cc3)C(=O)C2(C)C)ccn1 (stereo not drawn) [Compound 124, 3-(4-(2,2-difluoro-1-methylcyclopropyl)phenyl)-1-((2-(isopropylamino)pyridin-4-yl)methyl)-5,5-dimethylimidazolidine-2,4-dione] | ≥ 6.30 | ≥ 6.30 |
| CC(C)Nc1cc(CN2C(=O)N(c3ccc(C4(C#N)CC(F)(F)C4)cc3)C(=O)C2(C)C)ccn1 [Compound 123, 3,3-difluoro-1-(4-(3-((2-(isopropylamino)pyridin-4-yl)methyl)-4,4-dimethyl-2,5-dioxoimidazolidin-1-yl)phenyl)cyclobutane-1-carbonitrile] | 5.70 to 6.30 | 5.70 to 6.30 |
| CC1(C)CNc2nccc(CN3C(=O)N(c4ccc(SC(F)(F)F)cc4)C(=O)C3(C)C)c21 [Compound 20, 1-((3,3-dimethyl-2,3-dihydro-1H-pyrrolo[2,3-b]pyridin-4-yl)methyl)-5,5-dimethyl-3-(4-((trifluoromethyl)thio)phenyl)imidazolidine-2,4-dione] | ≥ 6.30 | ≥ 6.30 |
| Cn1nc(C(F)(F)F)c2ccc(N3C(=O)N(Cc4ccnc(N)c4)C(C)(C)C3=O)cc21 [Compound 255, 1-((2-aminopyridin-4-yl)methyl)-5,5-dimethyl-3-(1-methyl-3-(trifluoromethyl)-1H-indazol-6-yl)imidazolidine-2,4-dione] | 5.70 to 6.30 | 5.00 to 5.70 |
| CN1C(=O)C(C)(C)c2ccc(N3C(=O)N(Cc4ccnc(N)c4)C(C)(C)C3=O)cc21 [Compound 110, 1-((2-aminopyridin-4-yl)methyl)-5,5-dimethyl-3-(1,3,3-trimethyl-2-oxoindolin-6-yl)imidazolidine-2,4-dione] | 5.70 to 6.30 | 5.00 to 5.70 |
| CC1(C)C(=O)N(c2ccc(SC(F)(F)F)cc2)C(=O)N1Cc1ccnc(N)c1P(C)(C)=O [Compound 389, 1-((2-amino-3-(dimethylphosphoryl)pyridin-4-yl)methyl)-5,5-dimethyl-3-(4-((trifluoromethyl)thio)phenyl) imidazolidine-2,4-dione] | 5.70 to 6.30 | 5.70 to 6.30 |
| CC(C)Nc1cc(CN2C(=O)N(c3ccc4c(C5CC5)n[nH]c4c3)C(=O)C2(C)C)ccn1 [Compound 258, 3-(3-cyclopropyl-1H-indazol-6-yl)-1-((2-(isopropylamino)pyridin-4-yl)methyl)-5,5-dimethylimidazolidine-2,4-dione] | 5.00 to 5.70 | 5.00 to 5.70 |
| CC(C)Nc1cc(CN2C(=O)N(c3ccc(SC(F)(F)F)cc3)C(=O)[C@@H]2CO)ccn1 [Compound 298, (S)-5-(hydroxymethyl)-1-((2-(isopropylamino)pyridin-4-yl)methyl)-3-(4-((trifluoromethyl)thio)phenyl)imidazolidine-2,4-dione] | < 5.00 | < 5.00 |
| CC(C)Nc1cc(CN2C(=O)N(c3ccc(C(C)(C)C#N)cc3)C(=O)C2(C)C)ccn1 [Compound 125, 2-(4-(3-((2-(isopropylamino)pyridin-4-yl)methyl)-4,4-dimethyl-2,5-dioxoimidazolidin-1-yl)phenyl)-2-methylpropanenitrile] | ≥ 6.30 | ≥ 6.30 |
| CC1(C)C(=O)N(c2ccc(C3(C(F)(F)F)CC3)cc2)C(=O)N1Cc1ccnc2c1CCCN2 [Compound 18, 5,5-dimethyl-1-((5,6,7,8-tetrahydro-1,8-naphthyridin-4-yl)methyl)-3-(4-(1-(trifluoromethyl)cyclopropyl)phenyl) imidazolidine-2,4-dione] | ≥ 6.30 | ≥ 6.30 |
| CC1(C)C(=O)N(c2ccc(C3(C(F)(F)F)CC3)cc2)C(=O)N1Cc1ccnc(N[C@@H]2CCOC2)c1 [Compound 118, (R)-5,5-dimethyl-1-((2-((tetrahydrofuran-3-yl)amino)pyridin-4-yl)methyl)-3-(4-(1-(trifluoromethyl)cyclopropyl)phenyl) imidazolidine-2,4-dione] | ≥ 6.30 | ≥ 6.30 |
| CC(C)Nc1cc(CN2C(=O)N(c3ccc(C4(C#N)CCC4)cc3)C(=O)C2(C)C)ccn1 [Compound 107, 1-(4-(3-((2-(isopropylamino)pyridin-4-yl)methyl)-4,4-dimethyl-2,5-dioxoimidazolidin-1-yl)phenyl)cyclobutane-1-carbonitrile] | ≥ 6.30 | ≥ 6.30 |
| CC(C)Nc1cc(CN2C(=O)N(c3ccc(C4(C(F)(F)F)CC4)cc3)C(=O)C2(C)C)ccn1 [Compound 84, 1-((2-(isopropylamino)pyridin-4-yl)methyl)-5,5-dimethyl-3-(4-(1-(trifluoromethyl)cyclopropyl)phenyl)imidazolidine-2,4-dione] | ≥ 6.30 | ≥ 6.30 |

Other lines, results leading:

| pIC50 (IGF-1R [1]) | pIC50 (IGF-1R [2]) | SMILES |
| --- | --- | --- |
| ≥ 6.30 | ≥ 6.30 | CC1(C)C(=O)N(c2ccc(SC(F)(F)F)cc2)C(=O)N1Cc1ccnc(N)c1C#N [Compound 391, 2-amino-4-((5,5-dimethyl-2,4-dioxo-3-(4-((trifluoromethyl)thio)phenyl)imidazolidin-1-yl)methyl)nicotinonitrile] |
| 5.00 to 5.70 | 5.00 to 5.70 | CN1C(=O)C2(CC2)c2ccc(N3C(=O)N(Cc4ccnc(N)c4)C(C)(C)C3=O)cc21 [Compound 402, 1-((2-aminopyridin-4-yl)methyl)-5,5-dimethyl-3-(1′-methyl-2′-oxospiro[cyclopropane-1,3′-indolin]-6′-yl)imidazolidine-2,4-dione] |
| < 5.00 | ≥ 6.30 | Cc1c(CN2C(=O)N(c3ccc(C4(C(F)(F)F)CC4)cc3)C(=O)C2(C)C)ccnc1NC(C)C [Compound 122, 1-((2-(isopropylamino)-3-methylpyridin-4-yl)methyl)-5,5-dimethyl-3-(4-(1-(trifluoromethyl)cyclopropyl)phenyl)imidazolidine-2,4-dione] |
| ≥ 6.30 | ≥ 6.30 | CC(C)Nc1cc(CN2C(=O)N(c3ccc4c(c3)OCC4(C)C)C(=O)C2(C)C)ccn1 [Compound 189, 3-(3,3-dimethyl-2,3-dihydrobenzofuran-6-yl)-1-((2-(isopropylamino)pyridin-4-yl)methyl)-5,5-dimethylimidazolidine-2,4-dione] |
| 5.00 to 5.70 | ≥ 6.30 | CC(C)Nc1nccc(CN2C(=O)N(c3ccc(SC(F)(F)F)cc3)C(=O)C2(C)C)c1Br [Compound 390, 1-((3-bromo-2-(isopropylamino)pyridin-4-yl)methyl)-5,5-dimethyl-3-(4-((trifluoromethyl)thio)phenyl)imidazolidine-2,4-dione] |
| ≥ 6.30 | ≥ 6.30 | CC1COCCC1Nc1cc(CN2C(=O)N(c3ccc(C4(C(F)(F)F)CC4)cc3)C(=O)C2(C)C)ccn1 (stereo not drawn) [Compound 128, 5,5-dimethyl-1-((2-((3-methyltetrahydro-2H-pyran-4-yl)amino)pyridin-4-yl)methyl)-3-(4-(1-(trifluoromethyl)cyclopropyl)phenyl) imidazolidine-2,4-dione] |
| ≥ 6.30 | ≥ 6.30 | CC1(C)Cc2c(CN3C(=O)N(c4ccc(SC(F)(F)F)cc4)C(=O)C3(C)C)ccnc2N1 [Compound 21, 1-((2,2-dimethyl-2,3-dihydro-1H-pyrrolo[2,3-b]pyridin-4-yl)methyl)-5,5-dimethyl-3-(4-((trifluoromethyl)thio)phenyl)imidazolidine-2,4-dione] |
| ≥ 6.30 | ≥ 6.30 | CC1(C)C(=O)N(c2ccc(C3(C(F)(F)F)CC3)cc2)C(=O)N1Cc1ccnc2c1C(F)(F)C(=O)N2 [Compound 24, 1-((3,3-difluoro-2-oxo-2,3-dihydro-1H-pyrrolo[2,3-b]pyridin-4-yl)methyl)-5,5-dimethyl-3-(4-(1-(trifluoromethyl)cyclopropyl)phenyl) imidazolidine-2,4-dione] |
| ≥ 6.30 | ≥ 6.30 | CC1(C)C(=O)N(c2ccc(C3(C(F)(F)F)CC3)cc2)C(=O)N1Cc1ccnc(NC2CCOCC2)c1 [Compound 106, 5,5-dimethyl-1-((2-((tetrahydro-2H-pyran-4-yl)amino)pyridin-4-yl)methyl)-3-(4-(1-(trifluoromethyl)cyclopropyl)phenyl) imidazolidine-2,4-dione] |
| ≥ 6.30 | ≥ 6.30 | CC1(C)C(=O)N(c2ccc(C3(C(F)(F)F)CC3)cc2)C(=O)N1Cc1ccnc2c1CC(=O)N2 [Compound 13, 5,5-dimethyl-1-((2-oxo-2,3-dihydro-1H-pyrrolo[2,3-b]pyridin-4-yl)methyl)-3-(4-(1-(trifluoromethyl)cyclopropyl)phenyl)imidazolidine-2,4-dione] |
